Experimental data reported in US5668134A, “Method for preventing or reducing photosensitivity and/or phototoxicity reactions to medications” (priority 1994, dated 1997).
“And” between values parts separate entries of the source, which are not always exact repeats. Equal values may be shown once. Where a name gives a salt, the structure may show the parent alone.

How the values were obtained:
healthy male volunteers = conditions: lomefloxacin 400 mg BID, ciprofloxacin 750 mg BID, 14 days, UVA and UVA/UVB
Method: This study was a single center, open label, multiple does, parallel, randomized study in healthy male volunteers.
Drug administration began on day three. Single dermatological sites were chosen on each of the subjects to be the site which was to be evaluated over time. Twenty joules of radiation were administered to these sites on day 1, day 6 and day 16. Also, graded UVA-UVB exposure was performed on days 2, 7 and 16. The dermatological responses were scored at 1, 24 and 48 hours after each UVA exposure and at 24 hours after the combined UVA-UVB exposure. The definitions which were employed in interpreting this study were that photosensitivity was to be assessed by exposure duration associated with the smallest dermatological response score above zero, which was defined as the minimal erythrogenic dose after the UVA-UVB exposure. The photosensitivity and/or phototoxicity reaction was taken by definition to be an increase of equal to or greater than 1 unit in what was defined as a dermatological response over baseline values after the UVA exposure.

[1] = test system: skin of healthy volunteers; assay: Example 5: regression of delayed MEDUVA on plasma concentration
From the text: The relationship between plasma concentration at time of irradiation and delayed MEDUVA was explored using regression analysis by testing the equality of the slopes of the regression of delayed MEDUVA on plasma concentration, obtaining estimates of the parameters of the regression line, and determining the correlation coefficient.

[2] = test system: skin of healthy volunteers; assay: Example 5: Minimum Erythema Dose with UVA radiation, morning vs evening dosing; format: in vivo, human; conditions: for phototoxicity of evening versus morning dosing: UVA exposure 16 hours vs 2 hours after dosing; for DELAYED MED / IMMEDIATE MED / MED, 0 H / MED, 3 H / MED, 6 H / MED, 24 H / MED, 48 H / MED, 72 H / CHANGE BASELINE, delayed MED / CHANGE BASELINE, immediate MED: individual subjects; for MED, 0 H: 0 H post-radiation; for MED, 3 H: 3 H post-radiation; for MED, 6 H: 6 H post-radiation; for MED, 24 H: 24 H post-radiation; for MED, 48 H: 48 H post-radiation; for MED, 72 H: 72 H post-radiation; for CHANGE BASELINE, delayed MED / CHANGE BASELINE, immediate MED: baseline minus posttreatment
Method: This study describes a randomized, single site, double-blind, two treatment, two period, two sequence, cross-over clinical pharmacology study which was performed according to FDA regulations in 27 healthy normal volunteers with fair skin that could easily burn when exposed to sunlight, to assess the photosensitivity and/or phototoxicity potential of oral 400 mg lomefloxacin hydrochloride (MAXAQUIN®) administered once daily for 4 consecutive days either in the morning (morning dose group), as described hereinbelow, or in the early evening (evening dose group), as described hereinbelow. Irradiation and evaluation of irradiated sites began at 2 hours after the final morning dose of lomefloxacin HCl for the morning dosing group, and began 16 hours after the final evening dose of lomefloxacin HCl for the evening dosing group.
"Baseline MED" was defined as the lowest dose of UVA radiation alone, or UVA and UVB radiation, that produced a minimal perceptible erythema filling a 1 cm^2 patch of skin 24 hours post radiation.
"Delayed MED" was defined as the lowest dose of UVA radiation alone, or UVA and UVB radiation, that produced a minimal perceptible erythema filling a 1 cm^2 patch of skin, when testing the area 24, 48 and 72 hours post radiation.
"Immediate MED" was defined as the lowest dose producing minimal perceptible erythema filling a 1 cm^2 patch of skin when testing the area 0, 3, and 6 hours post radiation.
After all baseline procedures, including determination of baseline MEDUVA and MEDUVA+UVB values 24 hours post-radiation, were completed, all subjects started Study Day 1 of Treatment Period 1 with an evening dose of study medication, and completed this phase of the treatment regime with a morning dose of study medication on Study Day 5. Two hours after the final morning dose, and 16 hours after the last evening dose, a randomly selected site composed of six patches of skin, each with an area of one square centimeter, on the back or buttock of the subject was irradiated with incremental amounts of energy. Immediately following irradiation (0 hour), and at 3, 6, 24, 48 and 72 hours following irradiation, each skin patch area was evaluated to determine the MEDs, and assess the severity of skin reaction using a five-grade system, as described hereinbelow. The lowest of the MEDs determined at 0, 3 and 6 hours post-radiation were referred to as immediate MEDs, and the lowest of the MEDs determined at 24, 48 and 72 hours post-radiation were referred to as delayed MEDs.
The source of radiation employed was an Oriel (Santa Monica, Calif.) Xenon Arc 1000 watt solar simulator, with the following filters: WG320 filter (1 mm thick, emitting full spectrum UVA and UVB radiation), WG335 filter (3 mm thick, emitting almost exclusively UVA radiation) or UG11 filter (to filter infrared radiation).
For predrug exposure MED determination, 2 sets each with six 1 cm^2 patches on the back or buttocks were irradiated with increasing doses of UVA and UVB radiation, and UVA radiation alone, up to 7 days prior to beginning of drug treatment. With respect to UVA light source, irradiation began at 5 J/cm^2, and was increased by increments of 5 J/cm^2 using a different skin patch for each exposure. The maximum radiation dose was 30 J/cm^2. Subjects with MED greater than 30 J/cm^2 were excluded from the study. […] A different skin patch was used for each exposure.
Two hours after the administration of the last dose of Treatment Period 1 (a.m. dose), the two randomly selected sites on each subject's back or buttocks were exposed one to UVA and UVB radiation, and one to UVA radiation alone. In order to protect the subjects from excessive radiation, as well as assess the true Minimum Erythema Dose (MED), the posttreatment irradiation doses for each subject was adjusted in accordance with their pretreatment MEDs. The following table was used to determine each subject's minimum and maximum posttreatment radiation dose: […]

patients = assay: Example 3: multicenter comparative safety and efficacy study, photosensitivity; format: in vivo, human; conditions: 400 mg x 7 days
Method: A double blind, randomized, parallel group, three-arm clinical study concerning the photosensitivity reactions caused by lomefloxacin HCl was the multicenter comparative safety and efficacy study which was conducted in Sweden. 400 mg of lomefloxacin HCl was given once a day (q.d.) for either three days or seven days. 703 patients were enrolled in this study, before newly-raised awareness of photosensitivity reactions associated with lomefloxacin HCl.
However, about one year into the study, on Feb. 2, 1989, a letter was sent out to each of the study investigators regarding the possible risks of lomefloxacin HCl photosensitivity reactions. This information was again communicated to the study investigators at an Investigator's Meeting which was held on Jun. 8, 1989. The above-describedwarnings to study investigators apparently may have not been shared with the patients taking part in the study because photosensitivity rates for this study were reported as for […] as 10% for lomefloxacin HCl 400 mg×7 days.

[3] = mean, UVA, a.m. dosing, p=0.002

`CCn1cc(C(=O)O)c(=O)c2cc(F)c(N3CCNC(C)C3)c(F)c21` (racemic) [lomefloxacin HCl, monohydrochloride salt of (±)-1-ethyl-6,8-difluoro-1,4-dihydro-7-(3-methyl-1-piperazinyl)-4-oxo-3-quinolinecarboxylic acid] was tested, and the “rate of photosensitivity reactions” value (healthy male volunteers) was 64%, the “correlation coefficient, plasma concentration vs delayed MEDUVA” value ([1]; in vivo) was -0.72 and the “slope of regression of delayed MEDUVA on plasma concentration” value ([1]; p<0.001) was -4.99. For the same compound, the “phototoxicity of evening versus morning dosing” value [2] was “less sensitive to light”, the “phototoxicity of evening versus morning dosing” value ([2]; listed as MAXAQUIN®) was “significantly less phototoxic” and the “mean change of delayed MEDUVA, a.m. versus p.m.” value ([2]; in vivo) was “statistically significant difference”. For the same compound, the “treatment effect on delayed MEDUVA, conservative analysis” value ([2]; in vivo) was “statistically significant treatment effect”, the “DELAYED MED” value ([2]; UVA, a.m. dosing) was 10.000 J/cm^2 and 20.000 J/cm^2 and 15.000 J/cm^2 and 30.000 J/cm^2 and 25.000 J/cm^2 and the “IMMEDIATE MED” value ([2]; UVA, a.m. dosing) was 15.000 J/cm^2 and 20.000 J/cm^2 and 30.000 J/cm^2 and 25.000 J/cm^2. The “MED, 0 H” value ([2]; UVA, a.m. dosing) was 25.000 J/cm^2 and 30.000 J/cm^2 and 15.000 J/cm^2, the “MED, 3 H” value ([2]; UVA, a.m. dosing) was 15.000 J/cm^2 and 20.000 J/cm^2 and 25.000 J/cm^2 and the “MED, 6 H” value ([2]; UVA, a.m. dosing) was 15.000 J/cm^2 and 20.000 J/cm^2 and 30.000 J/cm^2 and 25.000 J/cm^2. The “MED, 24 H” value ([2]; UVA, a.m. dosing) was 10.000 J/cm^2 and 20.000 J/cm^2 and 15.000 J/cm^2 and 30.000 J/cm^2 and 25.000 J/cm^2, the “MED, 48 H” value ([2]; UVA, a.m. dosing) was 15.000 J/cm^2 and 25.000 J/cm^2 and 30.000 J/cm^2 and 20.000 J/cm^2 and the “MED, 72 H” value ([2]; UVA, a.m. dosing) was 15.000 J/cm^2 and 25.000 J/cm^2 and 20.000 J/cm^2 and 30.000 J/cm^2. The “CHANGE BASELINE, delayed MED” value ([2]; UVA, a.m. dosing) was 20.000 J/cm^2 and 5.000 J/cm^2 and 10.000 J/cm^2 and -5.000 J/cm^2, the “CHANGE BASELINE, immediate MED” value ([2]; UVA, a.m. dosing) was 15.000 J/cm^2 and 5.000 J/cm^2 and 10.000 J/cm^2 and -5.000 J/cm^2 and the “DELAYED MED” value ([2]; UVA, p.m. dosing) was 30.000 J/cm^2 and 25.000 J/cm^2 and 20.000 J/cm^2. For the same compound, the “IMMEDIATE MED” value ([2]; UVA, p.m. dosing) was 30.000 J/cm^2 and 25.000 J/cm^2, the “MED, 0 H” value ([2]; UVA, p.m. dosing) was 30.000 J/cm^2 and 25.000 J/cm^2 and the “MED, 3 H” value ([2]; UVA, p.m. dosing) was 30.000 J/cm^2. For the same compound, the “MED, 6 H” value ([2]; UVA, p.m. dosing) was 30.000 J/cm^2 and 25.000 J/cm^2, the “MED, 24 H” value ([2]; UVA, p.m. dosing) was 30.000 J/cm^2 and 25.000 J/cm^2 and the “MED, 48 H” value ([2]; UVA, p.m. dosing) was 30.000 J/cm^2 and 20.000 J/cm^2 and 25.000 J/cm^2. The “MED, 72 H” value ([2]; UVA, p.m. dosing) was 30.000 J/cm^2 and 25.000 J/cm^2, the “CHANGE BASELINE, delayed MED” value ([2]; UVA, p.m. dosing) was -5.000 J/cm^2 and 0.000 J/cm^2 and 5.000 J/cm^2 and the “CHANGE BASELINE, immediate MED” value ([2]; UVA, p.m. dosing) was -5.000 J/cm^2 and 5.000 J/cm^2 and 0.000 J/cm^2. The “DELAYED MED, mean” value ([2]; mean, UVA, a.m. dosing) was 20.000 J/cm^2, the “IMMEDIATE MED, mean” value ([2]; mean, UVA, a.m. dosing) was 19.615 J/cm^2 and the “MED, 0 H, mean” value ([2]; mean, UVA, a.m. dosing) was 25.500 J/cm^2. The “MED, 3 H, mean” value ([2]; mean, UVA, a.m. dosing) was 20.833 J/cm^2, the “MED, 6 H, mean” value ([2]; mean, UVA, a.m. dosing) was 19.615 J/cm^2 and the “MED, 24 H, mean” value ([2]; mean, UVA, a.m. dosing) was 20.385 J/cm^2. For the same compound, the “MED, 48 H, mean” value ([2]; mean, UVA, a.m. dosing) was 22.692 J/cm^2, the “MED, 72 H, mean” value ([2]; mean, UVA, a.m. dosing) was 23.077 J/cm^2 and the “CHANGE BASELINE, delayed MED, mean” value [2, 3] was 6.5 J/cm^2 and 6.538 J/cm^2. For the same compound, the “CHANGE BASELINE, immediate MED, mean” value [2, 3] was 6.923 J/cm^2 and 6.9 J/cm^2, the “DELAYED MED, mean” value ([2]; mean, UVA, p.m. dosing) was 27.917 J/cm^2 and the “IMMEDIATE MED, mean” value ([2]; mean, UVA, p.m. dosing) was 28.750 J/cm^2. The “MED, 0 H, mean” value ([2]; mean, UVA, p.m. dosing) was 28.333 J/cm^2, the “MED, 3 H, mean” value ([2]; mean, UVA, p.m. dosing) was 30.000 J/cm^2 and the “MED, 6 H, mean” value ([2]; mean, UVA, p.m. dosing) was 28.750 J/cm^2. The “MED, 24 H, mean” value ([2]; mean, UVA, p.m. dosing) was 28.333 J/cm^2, the “MED, 48 H, mean” value ([2]; mean, UVA, p.m. dosing) was 28.182 J/cm^2 and the “MED, 72 H, mean” value ([2]; mean, UVA, p.m. dosing) was 28.500 J/cm^2. For the same compound, the “CHANGE BASELINE, delayed MED, mean” value ([2]; mean, UVA, p.m. dosing, p=1.000) was 0.000 J/cm^2 and the photosensitivity rate (patients) was 10%.
